Measured values published in patent US11597704B2, “2,4-diaminoquinazoline derivatives and medical uses thereof” (Janssen Sciences Ireland Unlimited Company, priority 2018, dated 2023).

Experiments:
[1] = molecular target: T1, human TLR7 (Homo sapiens, UniProt Q9NYK1); experiment: TLR7 NFκB-luc cellular reporter assay in transiently transfected HEK293 cells; format: cell-based; settings: lowest effective concentration; HEK293 cells transfected with wild type TLR7 and NFκB-luc reporter, 6 h incubation
T1 construct: expressed in transfected cells; host or cells: HEK293
T1 sequence (Q9NYK1 27-1049): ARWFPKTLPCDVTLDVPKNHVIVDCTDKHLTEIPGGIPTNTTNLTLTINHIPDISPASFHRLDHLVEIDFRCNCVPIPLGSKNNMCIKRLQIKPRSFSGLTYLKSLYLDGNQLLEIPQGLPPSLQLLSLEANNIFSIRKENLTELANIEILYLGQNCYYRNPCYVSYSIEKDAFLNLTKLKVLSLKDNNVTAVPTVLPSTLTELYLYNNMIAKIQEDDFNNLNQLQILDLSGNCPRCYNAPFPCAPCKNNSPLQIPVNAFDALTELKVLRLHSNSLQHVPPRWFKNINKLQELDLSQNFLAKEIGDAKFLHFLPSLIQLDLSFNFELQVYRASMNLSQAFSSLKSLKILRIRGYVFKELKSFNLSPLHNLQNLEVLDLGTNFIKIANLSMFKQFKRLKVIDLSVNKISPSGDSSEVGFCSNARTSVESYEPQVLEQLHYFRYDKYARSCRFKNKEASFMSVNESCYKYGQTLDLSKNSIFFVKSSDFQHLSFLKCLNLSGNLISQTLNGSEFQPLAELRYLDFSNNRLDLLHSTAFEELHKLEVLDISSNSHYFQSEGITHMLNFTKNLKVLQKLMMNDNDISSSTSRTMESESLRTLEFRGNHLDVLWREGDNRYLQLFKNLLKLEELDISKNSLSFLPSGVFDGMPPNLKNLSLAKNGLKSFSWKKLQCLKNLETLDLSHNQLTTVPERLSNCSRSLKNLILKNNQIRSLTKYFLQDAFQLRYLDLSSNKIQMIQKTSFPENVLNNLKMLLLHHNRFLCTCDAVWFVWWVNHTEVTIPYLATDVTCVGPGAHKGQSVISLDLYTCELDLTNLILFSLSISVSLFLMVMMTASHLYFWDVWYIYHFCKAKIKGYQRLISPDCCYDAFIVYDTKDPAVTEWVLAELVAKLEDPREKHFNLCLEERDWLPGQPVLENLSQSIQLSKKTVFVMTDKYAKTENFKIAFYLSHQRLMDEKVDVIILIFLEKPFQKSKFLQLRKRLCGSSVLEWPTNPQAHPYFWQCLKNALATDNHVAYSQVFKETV
Experimental: (§1) The ability of compounds to activate human TLR7 and/or TLR8 was assessed in a cellular reporter assay using HEK293 cells transiently transfected with a TLR7 or TLR8 expression vector and NFκB-luc reporter construct. In one instance, the TLR expression construct expresses the respective wild type sequence or a mutant sequence comprising a deletion in the second leucine-rich repeat of the TLR.
(§2) HEK293 cells were grown in culture medium (DMEM supplemented with 10% FCS and 2 mM Glutamine). For transfection of cells in 10 cm dishes, cells were detached with Trypsin-EDTA, transfected with a mix of CMV-TLR7 or TLR8 plasmid (750 ng), NFκB-luc plasmid (375 ng) and a transfection reagent and incubated 24 h at 37° C. in a humidified 5% C02 atmosphere. Transfected cells were then detached with Trypsin-EDTA, washed in PBS and re-suspended in medium to a density of 1.67×10^5 cells/mL. Thirty microliters of cells were then dispensed into each well in 384-well plates, where 10 μL of compound in 4% DMSO was already present. Following 6 h incubation at 37° C., 5% CO2, the luciferase activity was determined by adding 15 μl of STEADY LITE PLUS substrate (PERKIN ELMER) to each well and readout performed on a VIEWLUX ULTRAHTS microplate imager (PERKIN ELMER). Dose response curves were generated from measurements performed in quadruplicates. Lowest effective concentrations (LEC) values, defined as the concentration that induces an effect which is at least two-fold above the standard deviation of the assay, were determined for each compound.

[2] = molecular target: T2, human TLR8 (Homo sapiens, UniProt Q9NR97); experiment: TLR8 NFκB-luc cellular reporter assay in transiently transfected HEK293 cells; format: cell-based; settings: lowest effective concentration; HEK293 cells transfected with wild type TLR8 and NFκB-luc reporter, 6 h incubation
T2 construct: expressed in transfected cells; host or cells: HEK293
T2 sequence (Q9NR97 27-1041): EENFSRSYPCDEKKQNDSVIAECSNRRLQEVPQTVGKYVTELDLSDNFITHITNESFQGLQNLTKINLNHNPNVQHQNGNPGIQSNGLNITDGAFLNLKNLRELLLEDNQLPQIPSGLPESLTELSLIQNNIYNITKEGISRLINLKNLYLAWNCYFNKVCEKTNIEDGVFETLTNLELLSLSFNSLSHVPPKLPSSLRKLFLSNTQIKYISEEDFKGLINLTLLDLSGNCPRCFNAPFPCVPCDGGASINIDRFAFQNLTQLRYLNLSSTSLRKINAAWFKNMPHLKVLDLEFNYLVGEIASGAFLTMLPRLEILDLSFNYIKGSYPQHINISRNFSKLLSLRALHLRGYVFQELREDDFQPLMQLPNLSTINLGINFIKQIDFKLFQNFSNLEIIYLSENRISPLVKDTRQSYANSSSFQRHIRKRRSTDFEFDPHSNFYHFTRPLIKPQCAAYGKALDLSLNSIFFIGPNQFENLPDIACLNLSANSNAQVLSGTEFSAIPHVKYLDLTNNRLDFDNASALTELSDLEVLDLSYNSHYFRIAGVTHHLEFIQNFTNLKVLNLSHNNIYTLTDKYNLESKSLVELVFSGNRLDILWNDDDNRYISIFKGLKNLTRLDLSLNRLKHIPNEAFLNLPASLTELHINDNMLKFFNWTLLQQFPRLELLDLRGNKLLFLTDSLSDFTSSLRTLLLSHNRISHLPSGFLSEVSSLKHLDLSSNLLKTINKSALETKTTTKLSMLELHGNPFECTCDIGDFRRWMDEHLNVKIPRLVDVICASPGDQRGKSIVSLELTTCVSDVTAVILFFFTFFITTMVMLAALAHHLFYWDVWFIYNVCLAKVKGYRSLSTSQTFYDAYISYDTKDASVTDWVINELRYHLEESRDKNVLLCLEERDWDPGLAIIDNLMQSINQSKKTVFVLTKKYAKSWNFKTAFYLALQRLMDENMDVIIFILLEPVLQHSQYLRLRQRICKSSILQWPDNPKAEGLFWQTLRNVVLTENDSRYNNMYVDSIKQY
Experimental: as §1, §2

**Q.** What does the source list for `CC[C@H](C)[C@H](CO)Nc1nc(N)nc2cccc(F)c12` [Compound 21, (2R,3S)-2-((2-amino-5-fluoroquinazolin-4-yl)amino)-3-methylpentan-1-ol]?
**A.** hTLR7-wt (LEC) [1]: 1.71 µM; hTLR8-wt (LEC) [2]: 0.09 µM
